Test results published in patent publication US20110098214A1 (priority 2005, published 2011).
Square brackets hold non-standard residues; d marks the D form. Ends that are not written are not given here. Peptide text beside a SMILES is read from it.

Tests used:
[1] = test system: mouse model for endotoxemia; settings: in vivo
human IL-1β (Pepro Tech) = target: T1, human IL-1β (Pepro Tech) (human, UniProt P01584 117-269); assay: batch adsorption on peptide-immobilized silica beads, in an LPS solution (500 ng/mL LPS) containing IL-1β
T1 construct: Commercial protein added at 200 ng/mL to the LPS solution

Molecule | short term toxicity (weight) [1] | binding result (human IL-1β (Pepro Tech))
CC[C@H](C)[C@H](NC(=O)[C@H](CO)NC(=O)[C@H](CO)NC(=O)[C@@H](NC(=O)[C@H](CO)NC(=O)[C@H](CO)NC(=O)[C@H](CO)NC(=O)[C@H](Cc1ccc(O)cc1)NC(=O)[C@H](N)CCCCN)[C@@H](C)CC)C(=O)N[C@@H](CCCNC(=N)N)C(=O)NCC(=O)NCC(=O)N[C@@H](CC(C)C)C(=O)N[C@@H](CC(C)C)C(=O)N[C@@H](CC(C)C)C(=O)N[C@@H](CC(C)C)C(=O)N[C@@H](CC(C)C)C(=O)N[C@@H](CC(C)C)C(=O)N[C@@H](CC(C)C)C(=O)O [Wine Opener, kYSSSISSIRGGLLLLLLL] (H-[dK]YSSSISSIRGGLLLLLLL-OH; N-terminus and C-terminus assumed) | no short term toxicity which affected weight | –
KNYSSSISSIHAC (also: immobilized on silica beads via C-terminal Cys thiol, In the assay it was immobilized on propionyl chloride functionalized silica gel beads) [peptide Li5 C] | – | no binding (tested: 200 ng/mL IL-1β)
